ChEMBL document CHEMBL5230103, “Hydroxamic acid hybrids as the potential anticancer agents: An Overview” (Eur J Med Chem, 2020)

Columns and labels:
Ehrlich = test: Antitumor activity against mouse EAC cells implanted in mouse assessed as survival rate at 125 mg/kg, ip administered for 10 days; format: functional; conditions: 240 h, time 10 day
MDA-MB-231 [1] = test: Cytotoxicity against human MDA-MB-231 cells assessed as inhibition of cell growth measured after 24 hrs by MTT assay; format: functional, cell-based; conditions: MDA-MB-231, 24 h
MCF7 [2] = test: Cytotoxicity against human MCF7 cells assessed as inhibition of cell growth measured after 24 hrs by MTT assay; format: functional, cell-based; conditions: MCF7, 24 h
HCT-116 [3] = test: Cytotoxicity against human HCT-116 cells assessed as inhibition of cell growth measured after 24 hrs by MTT assay; format: functional, cell-based; conditions: HCT-116, 24 h
[4] = Selectivity index, ratio of CC50 for cytotoxicity against HEK293 cells to IC50 for cytotoxicity against human Jurkat E6.1 cells; format: toxicity, cell-based; conditions: HEK293 cells and Jurkat E6.1 cells, read-out: Ratio CC50/IC50
[5] = Selectivity index, ratio of CC50 for cytotoxicity against HEK293 cells to IC50 for cytotoxicity against human HeLa cells; format: toxicity, cell-based; conditions: HEK293 cells and HeLa cells, read-out: Ratio CC50/IC50
A549 [6] = test: Cytotoxicity against human A549 cells assessed as inhibition of cell growth by MTT assay; format: functional, cell-based
B16-F10 = test: Cytotoxicity against mouse B16-F10 cells assessed as inhibition of cell growth by MTT assay; format: functional, cell-based
Jurkat E6.1 = test: Cytotoxicity against human Jurkat E6.1 cells assessed as inhibition of cell growth by MTT assay; format: functional, cell-based
[7] = Selectivity index, ratio of CC50 for cytotoxicity against HEK293 cells to IC50 for cytotoxicity against human MCF7 cells; format: toxicity, cell-based; conditions: HEK293 cells and MCF7 cells, read-out: Ratio CC50/IC50
[8] = Cytotoxicity against HEK293 cells by MTT assay; format: toxicity, cell-based; conditions: human
Histone deacetylase 3 = Histone deacetylase 3 (Homo sapiens, UniProt O15379); test: Inhibition of HDAC3 (unknown origin)
[9] = Selectivity index, ratio of CC50 for cytotoxicity against HEK293 cells to IC50 for cytotoxicity against mouse B16-F10 cells; format: toxicity, cell-based; conditions: human, HEK293 cells and B16-F10 cells; read-out: Ratio CC50/IC50
[10] = Selectivity index, ratio of CC50 for cytotoxicity against HEK293 cells to IC50 for cytotoxicity against human A549 cells; format: toxicity, cell-based; conditions: HEK293 cells and A549 cells, read-out: Ratio CC50/IC50
MCF7 [11] = test: Cytotoxicity against human MCF7 cells assessed as inhibition of cell growth by MTT assay; format: functional, cell-based
HeLa = test: Cytotoxicity against human HeLa cells assessed as inhibition of cell growth by MTT assay; format: functional, cell-based
MDA-MB-231 [12] = test: Cytotoxicity against human MDA-MB-231 cells assessed as inhibition of cell growth by MTS assay; format: functional, cell-based
T47D = test: Cytotoxicity against human T47D cells assessed as inhibition of cell growth by MTS assay; format: functional, cell-based
MCF7 [13] = test: Cytotoxicity against human MCF7 cells assessed as inhibition of cell growth by MTS assay; format: functional, cell-based
MDA-MB-231 [14] = test: animal or person; format: functional, Homo sapiens; conditions: Mus musculus, route po, read-out: TGI
Description: Antitumor activity against human MDA-MB-231 cells xenografted in mouse assessed as tumor growth inhibition at 25 mg/kg, po relative to control

[15] = Half life in CD1 mouse at 2 mg/kg, iv; format: ADME, organism-based; conditions: in vivo
[16] = AUCinfinity in CD1 mouse at 2 mg/kg, iv; format: ADME, organism-based; set-up: dose 2 mg/kg, route iv; conditions: in vivo
[17] = Clearance in CD1 mouse at 2 mg/kg, iv; format: ADME, organism-based; conditions: in vivo
[18] = Cmax in CD1 mouse at 2 mg/kg, iv; format: ADME, organism-based; set-up: dose 2 mg/kg, route iv; conditions: in vivo
Histone deacetylase 2 = Histone deacetylase 2 (Homo sapiens, UniProt Q92769); test: Inhibition of HDAC2 (unknown origin)
PC-3 [19] = test: Potency index, ratio of vorinostat IC50 to test compound IC50 for cytotoxicity against human PC-3 cells assessed as inhibition of cell growth by MTT assay; format: functional
SW-620 [20] = test: Potency index, ratio of vorinostat IC50 to test compound IC50 for cytotoxicity against human SW620 cells assessed as inhibition of cell growth by MTT assay; format: functional
ASPC1 [21] = test: Potency index, ratio of vorinostat IC50 to test compound IC50 for cytotoxicity against human ASPC1 cells assessed as inhibition of cell growth by MTT assay; format: functional
SW-620 [22] = test: Cytotoxicity against human SW620 cells assessed as inhibition of cell growth by MTT assay; format: functional, cell-based
PC-3 [23] = test: Cytotoxicity against human PC-3 cells assessed as inhibition of cell growth by MTT assay; format: functional, cell-based
ASPC1 [24] = test: Cytotoxicity against human ASPC1 cells assessed as inhibition of cell growth by MTT assay; format: functional, cell-based
ASPC1 [25] = test: Cytotoxicity against human ASPC1 cells assessed as inhibition of cell growth by SRB assay; format: functional, cell-based
HCT-116 [26] = test: Antitumor activity against human HCT-116 cells xenografted in mouse assessed as tumor growth inhibition at 15 mg/kg, iv relative to control; format: functional; conditions: read-out: TGI
A549 [27] = test: Cytotoxicity against human A549 cells assessed as inhibition of cell growth by SRB assay; format: functional
[28] = target: T1, Protein deacetylase HDAC6 (Homo sapiens, UniProt Q9UBN7); test: Inhibition of HDAC6 (unknown origin)
T1 sequence (Q9UBN7 whole entry): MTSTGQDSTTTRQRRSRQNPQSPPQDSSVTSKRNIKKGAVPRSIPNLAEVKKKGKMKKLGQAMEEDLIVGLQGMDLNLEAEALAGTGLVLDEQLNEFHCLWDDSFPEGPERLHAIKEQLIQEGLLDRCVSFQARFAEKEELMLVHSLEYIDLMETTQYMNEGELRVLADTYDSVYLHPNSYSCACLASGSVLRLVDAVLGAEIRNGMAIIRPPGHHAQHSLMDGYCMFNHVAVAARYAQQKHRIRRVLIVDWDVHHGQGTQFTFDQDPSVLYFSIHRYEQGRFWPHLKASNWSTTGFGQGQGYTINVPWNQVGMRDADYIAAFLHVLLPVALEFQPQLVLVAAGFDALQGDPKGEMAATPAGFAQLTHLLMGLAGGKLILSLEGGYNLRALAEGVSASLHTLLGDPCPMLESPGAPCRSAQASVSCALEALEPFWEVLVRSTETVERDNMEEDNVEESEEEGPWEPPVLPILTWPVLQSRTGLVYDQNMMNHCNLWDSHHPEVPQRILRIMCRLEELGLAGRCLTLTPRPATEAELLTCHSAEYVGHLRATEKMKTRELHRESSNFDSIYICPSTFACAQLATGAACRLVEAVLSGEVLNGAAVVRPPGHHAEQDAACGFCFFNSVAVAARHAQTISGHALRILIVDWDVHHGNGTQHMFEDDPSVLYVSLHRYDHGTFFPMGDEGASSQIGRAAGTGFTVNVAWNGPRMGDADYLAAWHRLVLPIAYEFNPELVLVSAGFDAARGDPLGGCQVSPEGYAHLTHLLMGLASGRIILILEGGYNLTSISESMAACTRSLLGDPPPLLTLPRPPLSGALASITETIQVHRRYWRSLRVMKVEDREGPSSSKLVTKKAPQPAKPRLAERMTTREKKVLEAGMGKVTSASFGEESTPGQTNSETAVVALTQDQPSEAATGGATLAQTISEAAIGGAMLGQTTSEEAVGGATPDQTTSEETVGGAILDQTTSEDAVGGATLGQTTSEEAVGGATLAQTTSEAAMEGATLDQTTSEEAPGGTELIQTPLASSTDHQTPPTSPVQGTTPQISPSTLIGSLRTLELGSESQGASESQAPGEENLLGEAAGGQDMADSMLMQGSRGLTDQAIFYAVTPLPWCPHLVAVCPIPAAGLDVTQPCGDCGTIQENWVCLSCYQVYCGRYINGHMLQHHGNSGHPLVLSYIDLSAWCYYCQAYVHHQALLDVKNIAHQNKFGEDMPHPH

Histone deacetylase 1 = Histone deacetylase 1 (Homo sapiens, UniProt Q13547); test: Inhibition of HDAC1 (unknown origin)
MDA-MB-231 [29] = test: Cytotoxicity against human MDA-MB-231 cells assessed as inhibition of cell growth by SRB assay; format: functional, cell-based
HCT-116 [30] = test: Cytotoxicity against human HCT-116 cells assessed as inhibition of cell growth by SRB assay; format: functional, cell-based

Histone deacetylase 3, sequence (O15379 whole entry): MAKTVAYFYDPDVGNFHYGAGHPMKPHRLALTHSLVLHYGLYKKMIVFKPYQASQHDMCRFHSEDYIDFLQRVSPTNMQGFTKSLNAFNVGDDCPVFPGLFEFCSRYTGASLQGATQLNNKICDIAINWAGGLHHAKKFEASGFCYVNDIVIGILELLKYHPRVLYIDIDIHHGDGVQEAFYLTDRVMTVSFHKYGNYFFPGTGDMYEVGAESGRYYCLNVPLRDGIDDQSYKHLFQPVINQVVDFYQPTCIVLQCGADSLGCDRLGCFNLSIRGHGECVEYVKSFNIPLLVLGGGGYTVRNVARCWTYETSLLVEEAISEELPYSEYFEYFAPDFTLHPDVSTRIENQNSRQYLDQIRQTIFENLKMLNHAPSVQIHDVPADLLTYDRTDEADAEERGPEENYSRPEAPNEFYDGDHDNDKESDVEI
Histone deacetylase 2, sequence (Q92769 whole entry): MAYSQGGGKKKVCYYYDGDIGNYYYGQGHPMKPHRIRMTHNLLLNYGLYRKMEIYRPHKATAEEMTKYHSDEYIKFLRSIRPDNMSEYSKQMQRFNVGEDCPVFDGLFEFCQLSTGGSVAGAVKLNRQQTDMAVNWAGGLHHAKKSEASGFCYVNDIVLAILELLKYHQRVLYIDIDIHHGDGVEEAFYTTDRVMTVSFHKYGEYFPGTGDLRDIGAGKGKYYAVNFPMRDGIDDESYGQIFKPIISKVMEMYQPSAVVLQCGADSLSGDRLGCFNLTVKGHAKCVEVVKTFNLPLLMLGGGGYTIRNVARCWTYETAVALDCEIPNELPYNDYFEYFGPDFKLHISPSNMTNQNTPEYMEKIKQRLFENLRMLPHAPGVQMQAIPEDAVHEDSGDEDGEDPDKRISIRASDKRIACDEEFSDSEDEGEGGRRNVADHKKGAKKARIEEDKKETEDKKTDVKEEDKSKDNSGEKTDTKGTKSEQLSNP
Histone deacetylase 1, sequence (Q13547 whole entry): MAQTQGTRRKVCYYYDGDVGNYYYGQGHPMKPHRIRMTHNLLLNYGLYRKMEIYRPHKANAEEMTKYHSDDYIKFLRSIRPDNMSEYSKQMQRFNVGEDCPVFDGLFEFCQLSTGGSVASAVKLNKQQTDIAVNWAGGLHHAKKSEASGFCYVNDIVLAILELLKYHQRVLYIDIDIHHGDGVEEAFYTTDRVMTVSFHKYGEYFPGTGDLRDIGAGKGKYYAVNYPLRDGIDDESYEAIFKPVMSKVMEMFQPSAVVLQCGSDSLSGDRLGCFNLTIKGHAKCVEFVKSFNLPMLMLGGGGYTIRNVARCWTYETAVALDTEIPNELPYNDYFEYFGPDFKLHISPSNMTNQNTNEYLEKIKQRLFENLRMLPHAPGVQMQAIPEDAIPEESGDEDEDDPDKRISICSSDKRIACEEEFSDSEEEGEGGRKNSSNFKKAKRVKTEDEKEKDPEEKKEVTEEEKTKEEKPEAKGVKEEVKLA

Q: With Nn1c(SCCC(=O)NO)nnc1-c1cccnc1 as the compound, how does the survival at 125 mg/kg (Ehrlich) read?
A: 205%

Q: And the IC50 (MDA-MB-231 [1])?
A: 10400 nM

Q: And the IC50 (MCF7 [2])?
A: 10400 nM

Q: And the IC50 (HCT-116 [3])?
A: 10400 nM

Q: Which results are given for O=C(CCCN1CCN(C(=O)Nc2cccc3ncccc23)CC1)NO?
A: selectivity ratio [4]: > 8.7; selectivity ratio [5]: > 8.7; IC50 (A549 [6]): 7190 nM; IC50 (B16-F10): 7190 nM; IC50 (Jurkat E6.1): 7190 nM; selectivity ratio [7]: > 8.7; CC50 [8]: > 100000 nM; IC50 (Histone deacetylase 3): 4.42 nM; selectivity ratio [9]: > 8.7; selectivity ratio [10]: > 8.7; IC50 (MCF7 [11]): 7190 nM; IC50 (HeLa): 7190 nM

Q: Which IC50 (MDA-MB-231 [12]) does the source give for CCCCc1nc2cc(/C=C/C(=O)NO)ccc2n1CCN(CC)CC [PRACINOSTAT] here?
A: 5340 nM

Q: What about the IC50 (T47D) of the same compound?
A: 5340 nM

Q: And the IC50 (MCF7 [13])?
A: 5340 nM

Q: And the inhibition in vivo at 25 mg/kg (MDA-MB-231 [14])?
A: 50%

Q: With O=C(NO)C(c1ccccc1)c1c(-c2ccc3ccccc3c2)[nH]c2ccccc12 (stereo not given) as the compound, how does the half-life [15] read?
A: 1.65 h

Q: What about the AUC(0-inf) [16] of the same compound?
A: 1090 ng·h/mL

Q: And the clearance [17]?
A: 30.7 mL/min/kg

Q: What about the Cmax [18] of the same compound?
A: 2350 ng/mL

Q: What does the source list for Cc1ccc2c(c1)/C(=N\O)C(=O)N2CCCC(=O)NO?
A: IC50 (Histone deacetylase 2): 910 nM; Ratio IC50 (PC-3 [19]): 4.3; Ratio IC50 (SW-620 [20]): 4.3; Ratio IC50 (ASPC1 [21]): 4.3; IC50 (SW-620 [22]): 490 nM; IC50 (PC-3 [23]): 490 nM

Q: Which IC50 (ASPC1 [24]) does the source give for Cc1[nH]c2ccccc2c1CCNS(=O)(=O)c1ccc(/C=C/C(=O)NO)cc1 here?
A: 490 nM

Q: What about the IC50 (ASPC1 [25]) of the same compound?
A: 29 nM

Q: And the inhibition in vivo at 15 mg/kg (HCT-116 [26])?
A: 50.7%

Q: What about the IC50 (Histone deacetylase 2) of the same compound?
A: 5.13 nM

Q: And the IC50 (Histone deacetylase 3)?
A: 5.13 nM

Q: What about the GI50 (A549 [27]) of the same compound?
A: 29 nM

Q: What about the IC50 [28] of the same compound?
A: 5.13 nM

Q: What about the IC50 (Histone deacetylase 1) of the same compound?
A: 5.13 nM

Q: And the IC50 (MDA-MB-231 [29])?
A: 29 nM

Q: What about the IC50 (HCT-116 [30]) of the same compound?
A: 29 nM
